Patent publication US20070048252A1, “Conjugates of the hydrophilic polymer and the molecules from boxwood extraction, and pharmaceutical compositions of the conjugates” (Beijingn Jenkem Technology CO., Ltd., priority 2003, published 2007)
“Also recorded” adds a separate entry of the source.

Columns and labels:
Kunming strain mice = assay: Acute toxicity study, single IV or IP injection, 14 days observation; assay type: in vivo
Method: (§1) The conjugate obtained from example 8 was used as the testing reagent in the following study, while native Cyclovirobuxine D was used as positive control. Both samples were dissolved in sodium acetate (pH 5.7) before injection.
Kunming strain mice, 50% male and 50% formale, weighing 19-21 g, were randomly divided into 5 groups in the study. (1) native Cyclovirobuxine D, (2) the conjugate of PEG and Cyclovirobuxine D. The mice were fasted 12 hours before the injections. Each mice was given a single injection, and the volume for both IV and IP injection was based on 0.3 ml/10 g formulation. […] After 14 days, the mice still alive were executed and then analyzed.

[1] = test system: pituitrin-induced myocardial ischemic injury; assay: Effect on pituitrin-induced myocardial ischemic injury (routine leads ECG: T wave, cardioverter); assay type: in vivo, SD rats; details: for effect on the cardioverter, in words: comparison with the controls groups, P>0.05; for inhibition of the rising of T wave by pituitrin-induced, in words: in 15 sec
Method: as §1
Methods: 50 normal SD rats of each sex, weighting 180-220 g, were randomly divided into five groups: controls, low dose of native Cyclovirobuxine D (0.25 mg/kg); middle dose of native Cyclovirobuxine D (0.5 mg/kg); low dose of the conjugate of Cyclovirobuxine D (0.25 mg/kg); middle dose of the conjugate of Cyclovirobuxine D (0.5 mg/kg). All rats were fasted before experiment for 12 hours, 1 g/kg urethane was administered by abdominal injection for anesthesia of the rats, and were placed in dorsal recumbency. A needle electrode was inserted into extremity subsurface carefully, examination leads ECG, holding 30 min, records the routine leads ECG The drug was given via vein of […] tail for each groups, after 10 min, 1.5 u/kg pituitrin was injected into dorsal veins of tongue, limited in 10 sec, records the routine leads ECG in 15 s, 30 s, 1, 2, 3, 5, 7, 10, 15 min after injected.

[2] = low dose 0.25 mg/kg iv, 1′ after pituitrin
[3] = low dose 0.25 mg/kg iv, 2′ after pituitrin
[4] = low dose 0.25 mg/kg iv, 3′ after pituitrin
[5] = low dose 0.25 mg/kg iv, 5′ after pituitrin
[6] = low dose 0.25 mg/kg iv, 7′ after pituitrin
[7] = low dose 0.25 mg/kg iv, 10′ after pituitrin
[8] = low dose 0.25 mg/kg iv, 15′ after pituitrin
[9] = low dose 0.25 mg/kg iv, 15″ after pituitrin 1.5 u/kg
[10] = low dose 0.25 mg/kg iv, 30″ after pituitrin
[11] = middle dose 0.5 mg/kg iv, 1′ after pituitrin
[12] = middle dose 0.5 mg/kg iv, 2′ after pituitrin
[13] = middle dose 0.5 mg/kg iv, 3′ after pituitrin
[14] = middle dose 0.5 mg/kg iv, 5′ after pituitrin
[15] = middle dose 0.5 mg/kg iv, 7′ after pituitrin
[16] = middle dose 0.5 mg/kg iv, 10′ after pituitrin
[17] = middle dose 0.5 mg/kg iv, 15′ after pituitrin
[18] = middle dose 0.5 mg/kg iv, 15″ after pituitrin 1.5 u/kg
[19] = middle dose 0.5 mg/kg iv, 30″ after pituitrin
[20] = middle dose 0.5 mg/kg iv, time 0

With `CN[C@@H](C)[C@H]1[C@H](O)C[C@@]2(C)[C@@H]3CC[C@H]4C(C)(C)[C@@H](NC)CC[C@@]45C[C@@]35CC[C@]12C` [native Cyclovirobuxine D, Cyclovirobuxine D] the “LD50 in IP injection” value (Kunming strain mice; Kunming mice, single IP injection, 14 days observation) was 97.52 mg/kg, the “LD50 in IV injection” value (Kunming strain mice; Kunming mice, single IV injection, 14 days observation) was 11.77 mg/kg and the “effect on the cardioverter, in words” value [1] was “no significantly effect”. The “effect on the cardioverter, in words” value ([1]; listed as Native Cyclovirobuxine D) was “no significant effect”, the “cardioverter (X ± S)” value [1, 2] was 228.3 ± 44.41 and the “rising of T wave (X ± S)” value [1, 2] was 0.22 ± 0.08. For the same compound, the “cardioverter (X ± S)” value [1, 3] was 250.3 ± 29.14, the “rising of T wave (X ± S)” value [1, 3] was 0.18 ± 0.065 and the “cardioverter (X ± S)” value [1, 4] was 267.6 ± 44.71. For the same compound, the “rising of T wave (X ± S)” value [1, 4] was 0.21 ± 0.072, the “cardioverter (X ± S)” value [1, 5] was 266.4 ± 30.09 and the “rising of T wave (X ± S)” value [1, 5] was 0.22 ± 0.081. The “cardioverter (X ± S)” value [1, 6] was 270.6 ± 30.52, the “rising of T wave (X ± S)” value [1, 6] was 0.21 ± 0.076 and the “cardioverter (X ± S)” value [1, 7] was 289.8 ± 43.91. For the same compound, the “rising of T wave (X ± S)” value [1, 7] was 0.23 ± 0.075, the “cardioverter (X ± S)” value [1, 8] was 315.0 ± 63.39 and the “rising of T wave (X ± S)” value [1, 8] was 0.24 ± 0.081. The “cardioverter (X ± S)” value [1, 9] was 351.6 ± 90.78, the “rising of T wave (X ± S)” value [1, 9] was 0.50 ± 0.092 and the “cardioverter (X ± S)” value [1, 10] was 202.9 ± 42.85. For the same compound, the “rising of T wave (X ± S)” value [1, 10] was 0.23 ± 0.061, the “cardioverter (X ± S)” value ([1]; low dose 0.25 mg/kg iv, time 0) was 392.4 ± 48.11 and the “rising of T wave (X ± S)” value ([1]; low dose 0.25 mg/kg iv, time 0) was 0.20 ± 0.040. The “cardioverter (X ± S)” value [1, 11] was 196.2 ± 52.90, the “rising of T wave (X ± S)” value [1, 11] was 0.23 ± 0.068 and the “cardioverter (X ± S)” value [1, 12] was 215.4 ± 45.47. The “rising of T wave (X ± S)” value [1, 12] was 0.23 ± 0.051, the “cardioverter (X ± S)” value [1, 13] was 236.7 ± 47.92 and the “rising of T wave (X ± S)” value [1, 13] was 0.23 ± 0.047. For the same compound, the “cardioverter (X ± S)” value [1, 14] was 256.6 ± 51.26, the “rising of T wave (X ± S)” value [1, 14] was 0.24 ± 0.040 and the “cardioverter (X ± S)” value [1, 15] was 268.6 ± 53.15. For the same compound, the “rising of T wave (X ± S)” value [1, 15] was 0.25 ± 0.048, the “cardioverter (X ± S)” value [1, 16] was 260.8 ± 93.87 and the “rising of T wave (X ± S)” value [1, 16] was 0.27 ± 0.044. The “cardioverter (X ± S)” value [1, 17] was 297.6 ± 41.30, the “rising of T wave (X ± S)” value [1, 17] was 0.26 ± 0.040 and the “cardioverter (X ± S)” value [1, 18] was 331.1 ± 41.18. For the same compound, the “rising of T wave (X ± S)” value [1, 18] was 0.34 ± 0.119, the “cardioverter (X ± S)” value [1, 19] was 234.5 ± 85.06 and the “rising of T wave (X ± S)” value [1, 19] was 0.19 ± 0.116. For the same compound, the “cardioverter (X ± S)” value [1, 20] was 389.6 ± 46.56, the “rising of T wave (X ± S)” value [1, 20] was 0.21 ± 0.052 and the “inhibition of the rising of T wave by pituitrin-induced, in words” value ([1]; middle dose groups, 0.5 mg/kg, vs control group P<0.01) was “could inhibit”.

In the case of “α-methoxy-polyethylene-glycol-ω-glu-glu-gly-Cyclovirobuxine D ester [Example 8]”, the “toxicity compared with native Cyclovirobuxine D, in words” value (Kunming strain mice; iv and ip administration, from LD50) was “lower toxicity”, the “effect on the cardioverter, in words” value ([1]; listed as the conjugate of Cyclovirobuxine D) was “no significantly effect; also recorded: no significant effect” and the “cardioverter (X ± S)” value [1, 2] was 150 ± 96.44. The “rising of T wave (X ± S)” value [1, 2] was 0.25 ± 0.062, the “cardioverter (X ± S)” value [1, 3] was 180 ± 60.00 and the “rising of T wave (X ± S)” value [1, 3] was 0.22 ± 0.102. The “cardioverter (X ± S)” value [1, 4] was 200 ± 56.57, the “rising of T wave (X ± S)” value [1, 4] was 0.28 ± 0.071 and the “cardioverter (X ± S)” value [1, 5] was 240 ± 69.28. The “rising of T wave (X ± S)” value [1, 5] was 0.33 ± 0.056, the “cardioverter (X ± S)” value [1, 6] was 260 ± 44.72 and the “rising of T wave (X ± S)” value [1, 6] was 0.35 ± 0.067. The “cardioverter (X ± S)” value [1, 7] was 260 ± 44.72, the “rising of T wave (X ± S)” value [1, 7] was 0.32 ± 0.052 and the “cardioverter (X ± S)” value [1, 8] was 300 ± 91.65. The “rising of T wave (X ± S)” value [1, 8] was 0.33 ± 0.069, the “cardioverter (X ± S)” value [1, 9] was 270 ± 145.94 and the “rising of T wave (X ± S)” value [1, 9] was 0.24 ± 0.059. For the same compound, the “cardioverter (X ± S)” value [1, 10] was 200 ± 128.06, the “rising of T wave (X ± S)” value [1, 10] was 0.17 ± 0.123 and the “cardioverter (X ± S)” value ([1]; low dose 0.25 mg/kg iv, time 0) was 420 ± 60.00. The “rising of T wave (X ± S)” value ([1]; low dose 0.25 mg/kg iv, time 0) was 0.25 ± 0.064, the “inhibition of the rising of T wave by pituitrin-induced, in words” value ([1]; low dose groups, 0.25 mg/kg, vs control groups P<0.01) was “could inhibit” and the “cardioverter (X ± S)” value [1, 11] was 180 ± 60.00. For the same compound, the “rising of T wave (X ± S)” value [1, 11] was 0.28 ± 0.049, the “cardioverter (X ± S)” value [1, 12] was 200 ± 56.57 and the “rising of T wave (X ± S)” value [1, 12] was 0.27 ± 0.029. For the same compound, the “cardioverter (X ± S)” value [1, 13] was 240 ± 0.00, the “rising of T wave (X ± S)” value [1, 13] was 0.28 ± 0.029 and the “cardioverter (X ± S)” value [1, 14] was 260 ± 44.72. For the same compound, the “rising of T wave (X ± S)” value [1, 14] was 0.31 ± 0.059, the “cardioverter (X ± S)” value [1, 15] was 280 ± 56.57 and the “rising of T wave (X ± S)” value [1, 15] was 0.31 ± 0.059. The “cardioverter (X ± S)” value [1, 16] was 280 ± 56.57, the “rising of T wave (X ± S)” value [1, 16] was 0.30 ± 0.065 and the “cardioverter (X ± S)” value [1, 17] was 280 ± 56.57. The “rising of T wave (X ± S)” value [1, 17] was 0.33 ± 0.072, the “cardioverter (X ± S)” value [1, 18] was 340 ± 44.72 and the “rising of T wave (X ± S)” value [1, 18] was 0.33 ± 0.123. The “cardioverter (X ± S)” value [1, 19] was 260 ± 107.70, the “rising of T wave (X ± S)” value [1, 19] was 0.22 ± 0.107 and the “cardioverter (X ± S)” value [1, 20] was 420 ± 60.00. For the same compound, the “rising of T wave (X ± S)” value [1, 20] was 0.23 ± 0.046.
